Results: PubChem BioAssay (NCI)
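Each compound was tested at five concentrations against cells in 96-well plates for 48 hours. Abbreviation: GI50, concentration required for 50% inhibition of growth. TGI: concentration producing complete growth inhibition.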

Test system: SF-295 CNS
Assay: NCI tumour cell line growth inhibition, 48 h

Structure (SMILES)	TGI [µM]	GI50 [µM]
Cc1ccc([N+](=O)[O-])c2c(NCCCN(C)C)ccnc12	> 100	–
N#Cc1c(N)c(C(=O)O)nn(-c2cccc(C(F)(F)F)c2)c1=O	> 100	–
CCOC(=O)Cc1nc(/C(C#N)=C/c2ccco2)[nH]c(=O)c1C#N	> 100	–
CC1=Nc2c(ccc3c2C(=O)c2ccccc2C3=O)NC(c2ccncc2)C1 (centres undefined)	> 100	> 100
CC(=O)[CH-]C(C)=O.CC(=O)[CH-]C(C)=O.N=CC=N.[Sn+2]	23.3	10.4
COc1cc(/C=C\c2ccc(O)cc2)cc(OC)c1OC	5.48	–
C=C(COC(C)=O)CC(/C=C(\C)CCC=C(C)C)OC(C)=O (centres undefined)	> 100	–
CC1(C)CCc2cc3c(cc2O1)OCCC3=O	> 100	–
Oc1c2c(c(O)c3ccccc13)=N[C@@H](c1ccccc1)[C@H](c1ccccc1)N=2	> 100	–
c1cc[c]([Sn]([S]c2cccc3cccnc23)([c]2ccccc2)[c]2ccccc2)cc1	0.144	0.0462
COc1ccc2c(-c3cc4ccccc4o3)cc(=O)oc2c1	79.7	–
Cc1cc(C)nc(NS(=O)(=O)c2ccc(Nc3c4ccccc4nc4c(C(=O)N5CCN(CCOS(C)(=O)=O)CC5)ccc(Cl)c34)cc2)n1	> 100	–
Clc1cc(Cl)c2c(Cl)cc(Cl)c3c2c1N=S=N3	> 100	–
CN1CCN(C)C1c1cccc(C2N(C)CCN2C)c1	> 100	–
CC(=O)OCCOCBr	> 100	–
CC(O)CN1C(=O)NC(Cc2ccccc2)C1=O (centres undefined)	> 100	–
O=C(c1ccccc1)[C@H]1Nc2cnccc2C2c3ccccc3CC21 (some centres undefined)	48.3	–
COc1ccc(C(=O)C(C(=O)CCC(=O)Nc2cccc(C(F)(F)F)c2)c2ccccc2)cc1 (centres undefined)	> 100	–

Structure (SMILES)	TGI [µM]	GI50 [µM]
NC1=NC(=O)C(CC(=O)Nc2ccc([N+](=O)[O-])cc2[N+](=O)[O-])S1 (centres undefined)	> 100	–
O=C1c2ccccc2-c2cccc3ccc(Cc4ccccc4)c1c23	> 100	–
COC(=O)/C(=N\NC(=S)NN)C(C(=O)C(=O)Nc1ccccc1C(N)=O)c1nc2ccccc2[nH]c1=O (centres undefined)	> 100	–
CC/C=C\C/C=C\C1CC(=O)NCCCNCCCCN1 (centres undefined)	> 100	–
CS(=O)(=O)Nc1ccc(-c2ccc3c(NC(=O)C4CC4)n[nH]c3c2)cc1	> 25	> 25
CC1CCCC(C(=O)/C(=C/c2cccc(Cl)c2)C(=O)C(=O)O)C1 (centres undefined)	> 100	–
CC(=O)c1c(C)n([O-])c2cc(C)c(C)cc2[n+]1=O	> 100	–
C=C1C(=O)O[C@H]2[C@H]1CC/C(COC(=O)c1cc3cc(OC)ccc3[nH]1)=C\CC[C@@]1(C)O[C@@H]21	10.8	2.42
COCC(=O)OC1CCn2c1nc1c2C(=O)C(C)=C(NC(C)=O)C1=O (centres undefined)	31.7	–
N#CC(C#N)=Cc1cccc(Oc2ccccc2)c1	45.5	–
COc1ccc(C2C(C#N)=C(N)OC3=C2CCCc2ccc(F)cc23)cc1OC (centres undefined)	> 57.3	33.2
Cc1ncc([N+](=O)[O-])n1CCNC(=O)CCCCn1ccnc1[N+](=O)[O-]	> 100	–
COc1ccc(/C=C/C(=O)c2sc(-n3nc(-c4ccccc4)cc3-c3ccccc3)nc2C)cc1OC	74.2	–
COC(=O)c1c(O)ccc2[nH]c(C)c(C#N)c12	92.9	27.4
NC(CCSCC(F)F)C(=O)O (centres undefined)	> 100	–
CC1(C)OC(=O)C=C([O-])O1.CC1(C)OC(=O)C=C([O-])O1.O=c1c(O)c(-c2ccc([O-])cc2[O-])oc2cc(O)cc(O)c12.[Ti+4]	> 100	–
Nc1ccc(SC23CC4CC(CC(C4)C2)C3)cc1	> 100	–
CCOC(=O)[C@@H](C)C[C@H](Cc1ccccc1)NC(=O)c1csc([C@@H](C[C@H](C(C)C)N(C)C(=O)[C@@H](NC(=O)[C@H]2CCCCN2C)C(C)(C)C)OC(C)=O)n1	0.0918	< 0.00167

Test system: KM20L2 colon
Assay: NCI tumour cell line growth inhibition, 48 h

Structure (SMILES)	TGI [µM]	GI50 [µM]
Cc1ccc([N+](=O)[O-])c2c(NCCCN(C)C)ccnc12	75.2	–
N#Cc1c(N)c(C(=O)O)nn(-c2cccc(C(F)(F)F)c2)c1=O	> 100	–
CCOC(=O)Cc1nc(/C(C#N)=C/c2ccco2)[nH]c(=O)c1C#N	> 100	–
CC1=Nc2c(ccc3c2C(=O)c2ccccc2C3=O)NC(c2ccncc2)C1 (centres undefined)	> 100	> 100
CC(=O)[CH-]C(C)=O.CC(=O)[CH-]C(C)=O.N=CC=N.[Sn+2]	20.9	8.54
COc1cc(/C=C\c2ccc(O)cc2)cc(OC)c1OC	> 100	–
C=C(COC(C)=O)CC(/C=C(\C)CCC=C(C)C)OC(C)=O (centres undefined)	> 100	–
CC1(C)CCc2cc3c(cc2O1)OCCC3=O	> 100	–
c1cc[c]([Sn]([S]c2cccc3cccnc23)([c]2ccccc2)[c]2ccccc2)cc1	0.109	0.0338
COc1ccc2c(-c3cc4ccccc4o3)cc(=O)oc2c1	> 100	–
O=C1CCn2c([nH]c3cccc4cccc2c43)=N1	> 100	–
CCOc1cccc2nc3cccc(C(=O)NCCN(C)C)c3nc12	5.48	–
Cc1cc(C)nc(NS(=O)(=O)c2ccc(Nc3c4ccccc4nc4c(C(=O)N5CCN(CCOS(C)(=O)=O)CC5)ccc(Cl)c34)cc2)n1	> 100	–
Clc1cc(Cl)c2c(Cl)cc(Cl)c3c2c1N=S=N3	> 100	–
CN1CCN(C)C1c1cccc(C2N(C)CCN2C)c1	> 100	–
CC(=O)OCCOCBr	> 100	–
CC(O)CN1C(=O)NC(Cc2ccccc2)C1=O (centres undefined)	> 100	–
O=C(c1ccccc1)[C@H]1Nc2cnccc2C2c3ccccc3CC21 (some centres undefined)	57.3	–
COc1ccc(C(=O)C(C(=O)CCC(=O)Nc2cccc(C(F)(F)F)c2)c2ccccc2)cc1 (centres undefined)	> 100	–
NC1=NC(=O)C(CC(=O)Nc2ccc([N+](=O)[O-])cc2[N+](=O)[O-])S1 (centres undefined)	> 100	–
O=C1c2ccccc2-c2cccc3ccc(Cc4ccccc4)c1c23	> 100	–
COC(=O)/C(=N\NC(=S)NN)C(C(=O)C(=O)Nc1ccccc1C(N)=O)c1nc2ccccc2[nH]c1=O (centres undefined)	> 100	–
CC/C=C\C/C=C\C1CC(=O)NCCCNCCCCN1 (centres undefined)	> 100	–
CC1CCCC(C(=O)/C(=C/c2cccc(Cl)c2)C(=O)C(=O)O)C1 (centres undefined)	90	–
CC(=O)c1c(C)n([O-])c2cc(C)c(C)cc2[n+]1=O	> 100	–
COCC(=O)OC1CCn2c1nc1c2C(=O)C(C)=C(NC(C)=O)C1=O (centres undefined)	44.3	–
N#CC(C#N)=Cc1cccc(Oc2ccccc2)c1	> 80.9	–
COc1ccc(/C=C/C(=O)c2sc(-n3nc(-c4ccccc4)cc3-c3ccccc3)nc2C)cc1OC	63.7	–
NC(CCSCC(F)F)C(=O)O (centres undefined)	> 100	–
CC1(C)OC(=O)C=C([O-])O1.CC1(C)OC(=O)C=C([O-])O1.O=c1c(O)c(-c2ccc([O-])cc2[O-])oc2cc(O)cc(O)c12.[Ti+4]	> 100	> 100

Test system: MALME-3M melanoma
Assay: NCI tumour cell line growth inhibition, 48 h

Structure (SMILES)	TGI [µM]
CN(C)C(=S)/N=c1\ss/c(=N\S(=O)(=O)c2ccccc2)n1-c1ccccc1	> 100
